Columns and labels:
[1] = tested on: asthma mouse models with obvious pulmonary inflammation; assay: Anti-inflammatory effect in asthma mouse models (eosinophilic granulocytes in alveolar lavage fluid, flow cytometry); assay type: in vivo, Balb/c mice; conditions: for Proportion of eosinophilic granulocytes (EOs): white blood cells of alveolar lavage fluid, day 39, negative control group 17.05
Description: Firstly, Kudinoside A solutions at different concentrations were prepared, and specific steps were as follows: • (1) Preparation of 15 mg/mL stock solution of the crystal form A of Kudinoside A: 0.50990 g of the crystal form A of Kudinoside A obtained in Example 1 was dissolved in 33.993 mL of propylene glycol under sonication to obtain about […] of 15 mg/mL stock solution of the crystal form A of Kudinoside A, which was stored at room temperature in the dark; • (2) Preparation of 1.5 mg/mL Kudinoside A solution: 2 mL of the 15 mg/mL stock solution of the crystal form A of Kudinoside A was measured out and diluted with 18 mL of 25% propylene glycol to obtain 20 mL of 1.5 mg/mL Kudinoside A solution, and the solution was freshly prepared before use. • (3) Preparation of 0.3 mg/mL Kudinoside A solution: 4 mL of the 1.5 mg/mL Kudinoside A solution was measured out and diluted with 16 mL of 32.5% propylene glycol to obtain 20 mL of 0.3 mg/mL Kudinoside A solution, and the solution was freshly prepared before use. • (4) Preparation of 0.06 mg/mL Kudinoside A solution: 3 mL of the 0.3 mg/mL Kudinoside A solution was measured out and diluted with 12 mL of 32.5% propylene glycol to obtain 15 mL of […] Kudinoside A solution, and the solution was freshly prepared before use.
Then, asthma mouse models with obvious pulmonary inflammation were constructed: 100 μL of 6 mg/mL chicken ovalbumin and 4 mg of aluminum hydroxide were injected intraperitoneally to Balb/c mice on day 1, 100 μL of 3.6 mg/mL chicken ovalbumin and 4 mg of aluminum hydroxide were injected on day 8, 100 μL of 1 mg/mL chicken ovalbumin and 4 mg of aluminum hydroxide were injected on day 15, and 6 mL of 2% chicken ovalbumin was administered by nebulization for exciting of 30 min every day from day 20 to day 23, thus constructing asthma mouse models with obvious pulmonary inflammation. For the mice in the blank control group, 100 μL of PBS was used instead of chicken ovalbumin.
Finally, the nebulization treatment was performed: from day 24, the Kudinoside A solutions at different concentrations (0.06 mg/mL, 0.3 mg/mL, and 1.5 mg/mL) were each administered by nebulization twice daily (30 min for each time, 12 mL in total) for treatment, and 6 mL of 2% chicken ovalbumin was administered by nebulization for exciting of 30 min 1 h after the nebulization treatment, and the administration and excitation were performed for 15 days according to this scheme; sampling was carried out 24 h after the last administration and excitation experiment, i.e., on day 39, and the Kudinoside A solution at the corresponding nebulization treatment concentration was administered twice (30 min for each time, 12 mL in total) for treatment before the sampling. The above was the scheme for the experimental groups of the nebulization treatment with Kudinoside A at different doses, and the mice in the negative control group were administered with 30% propylene glycol instead of Kudinoside A for nebulization.
Flow cytometry was adopted to detect proportion of eosinophilic granulocytes (EOs) in white blood cells of mouse alveolar lavage fluid samples. The blank group had 15 mice, the negative control group had 12 mice, and the high-, medium-, and low-concentration Kudinoside A experimental groups had 18 mice, 13 mice, and 14 mice, respectively.

bronchial smooth muscle = assay: Relaxation effect on bronchial smooth muscle (bronchial ring tension); design: species or system C57BL/6J mice; conditions: for Average percentage of tension relaxation: bronchial rings pre-constricted, 20 minutes after adding
Description: Firstly, Kudinoside A solutions with different concentrations were prepared: 0.3253 g of the crystal form A of the Kudinoside A obtained in Example 1 was dissolved in 1 mL of dimethyl sulfoxide (DMSO) to prepare a stock solution of the crystal form A of Kudinoside A, and then the stock solution was diluted in sequence with DMSO into solutions of the crystal form A of Kudinoside A at concentrations of 1 μM, 3.2 μM, 10 μM, and 32 μM.
Then, bronchial rings were prepared: C57BL/6J mice aged 6 weeks were killed by breaking the neck, left and right bronchi were taken out and subjected to bronchia dissection under a stereomicroscope, and the obtained left and right bronchi were cut into bronchial rings with a length of about 2 mm.
Furthermore, the tension of the bronchial ring was balanced: the bronchial ring was fixed with two metal wires and suspended in a water bath at 37° C. containing 5 mL of balanced salt solution (Kreb solution), and a mixed gas containing 5% of carbon dioxide and 95% of oxygen was continuously introduced; then the tension of the bronchial ring was balanced using a tension transducer and re-balanced after pre-stimulation with 60 mM potassium chloride.
Finally, determination of the airway tension and drug administration were performed: the instrument was calibrated, and the detection system was zeroed; a tension value A was recorded when the tension of the mouse was stable; 5 μL of 10 mM […] was added to 5 mL of Kreb solution to make the final concentration to be 10 μM, and 5 μL of each of the solutions of the crystal form A of Kudinoside A at different concentrations (1 μM, 3.2 μM, 10 μM, and 32 μM) was added separately when the constriction tension of the bronchial ring reached the peak; the change of the bronchial tension was observed and recorded, and the percentage of the airway tension relaxation was calculated, as shown in Table 22. The average tension value 1 minute before adding the solution of Kudinoside A is recorded as B, the average tension value 20 minutes after adding Kudinoside A is recorded as C, and the percentage of airway tension relaxation is (B−C)/(B−A).

[2] = Thermogravimetric analysis (TGA); assay type: physicochemical; conditions: 10 K/min, nitrogen
Excerpt: Thermogravimetric analysis, or TGA for short, refers to a thermal analysis method for measuring the relationship of the mass of a sample to be detected with the change of temperature or time at a programmed temperature, and it is used to study information related to the quality of the sample, such as thermal stability, components of intermediate products possibly generated, etc. It is often used in combination with other thermal analysis methods for comprehensive thermal analysis. Methods for performing thermogravimetric analysis on the crystals are well known to those skilled in the art. In the present invention, the crystal forms A, C, and J of Kudinoside A are determined by using a thermogravimetric analyzer, and the specific measurement conditions are shown in Table 6.

[3] = Conditions under which the crystal forms exist stably; assay type: physicochemical
[4] = Hygroscopicity test by dynamic vapor sorption (DVS); assay type: physicochemical; conditions: for weight change when the relative humidity is in the range of 0%-80% / hygroscopicity: DVS graph (FIGS. 1d, 2d, 3d); for hygroscopicity: judgment criteria of Table 7; for Increase in mass (relative humidity: 0%-80%) / Degree of hygroscopicity: DVS, 25° C., relative humidity 0%-80%; for Degree of hygroscopicity: criteria of Table 12
Description: Dynamic vapor sorption (DVS) is a test method for analyzing the moisture sorption performance of a sample and recording the moisture sorption isotherm, and it determines the stability of a compound by identifying its sorption capacity for moisture. Methods for performing dynamic vapor sorption analysis on the crystals are well known to those skilled in the art. In the present invention, the hygroscopicity of the crystal forms A, C, and J of Kudinoside A is determined by using a dynamic vapor sorption instrument, and the specific measurement conditions are shown in Table 7.
About 10 mg of each of the crystal forms A, C, and J obtained in Examples 1-3 was tested for its hygroscopicity using a dynamic vapor sorption (DVS) instrument (test conditions: a temperature of 25° C. and a relative humidity of 0%-80%), and the hygroscopicity of each crystal form was judged using the criteria shown in Table 12 below. For the steps and the judgment criteria of the hygroscopicity test, reference is made to the General Requirement 9103-Guidelines for Hygroscopicity in Pharmacopoeia of the People's Republic of China 2020 (Volume IV).

[5] = assay type: physicochemical; conditions: uncovered, in the dark, 10 days; long-term (25±2° C., RH 65%±10%) and accelerated (40±2° C., RH 75%±10%) conditions
Description: 25 mg of the crystal form J was spread in a culture dish and left to stand, with the culture dish uncovered, in the dark for 10 days under long-term conditions (temperature: 25±2° C.; relative humidity: 65%±10%) and acceleration conditions (temperature: 40±2° C.; relative humidity: 75%±10%), and then the crystal form J was subjected to X-ray powder diffraction assay and thermogravimetric analysis. The X-ray powder diffractometer used and parameters thereof are shown in Table 4; the thermogravimetric analyzer used and parameters thereof are shown in Table 6.

Molecule: 3β-12α-19α-trihydroxy-ursane-13(18)-ene-28,20β-lactone-3-O-[β-D-glucosyl-(1→3)-[α-L-rham nosyl-(1→2)]-α-L-arabinoside [Kudinoside A]
- Proportion of eosinophilic granulocytes (EOs) ([1]; 0.06 mg/mL solution by nebulization twice daily): 10.14
- Proportion of eosinophilic granulocytes (EOs) ([1]; 0.3 mg/mL solution by nebulization twice daily): 9.56
- Proportion of eosinophilic granulocytes (EOs) ([1]; 1.5 mg/mL solution by nebulization twice daily): 10.81
- anti-inflammatory effect (conclusion) ([1]; asthma mouse models): certain anti-inflammatory effects
- proportion of eosinophilic granulocytes compared with the negative control group ([1]; each dose (0.06, 0.3, 1.5 mg/mL)): decreases
- relaxation effect on bronchial smooth muscle (bronchial smooth muscle; 1 μM): no relaxation effect
- relaxation effect on bronchial smooth muscle (bronchial smooth muscle; 3.2 μM, 10 μM, and 32 μM): relaxed to a certain degree
- Average percentage of tension relaxation (bronchial smooth muscle; Concentration of Kudinoside A 1 μM): −3.57%
- Average percentage of tension relaxation (bronchial smooth muscle; Concentration of Kudinoside A 3.2 μM): 21.40%
- Average percentage of tension relaxation (bronchial smooth muscle; Concentration of Kudinoside A 10 μM): 42.93%
- Average percentage of tension relaxation (bronchial smooth muscle; Concentration of Kudinoside A 32 μM): 50.09%

Molecule: C[C@@H]1O[C@@H](O[C@H]2[C@H](O[C@H]3CC[C@]4(C)[C@H]5C[C@H](O)C6=C7[C@]8(CC[C@](C)(OC8=O)[C@@]7(C)O)CC[C@@]6(C)[C@]5(C)CC[C@H]4C3(C)C)OC[C@H](O)[C@@H]2O[C@@H]2O[C@H](CO)[C@@H](O)[C@H](O)[C@H]2O)[C@H](O)[C@H](O)[C@H]1O [crystal form C, Kudinoside A]
- decomposition temperature [2]: about 315 °C
- conditions under which the crystal form exists stably [3]: can exist stably as a dry powder at room temperature
- weight change when the relative humidity is in the range of 0%-80% [4]: about 1.8%
- hygroscopicity [4]: slightly hygroscopic
- Increase in mass (relative humidity: 0%-80%) [4]: 1.8%
- Degree of hygroscopicity [4]: slightly hygroscopicity
- Degree of hygroscopicity ([4]; listed as C): Slightly hygroscopic (The increase in mass is less than 2% but not less than 0.2%)

Molecule: C[C@@H]1O[C@@H](O[C@H]2[C@H](O[C@H]3CC[C@]4(C)[C@H]5C[C@H](O)C6=C7[C@]8(CC[C@](C)(OC8=O)[C@@]7(C)O)CC[C@@]6(C)[C@]5(C)CC[C@H]4C3(C)C)OC[C@H](O)[C@@H]2O[C@@H]2O[C@H](CO)[C@@H](O)[C@H](O)[C@H]2O)[C@H](O)[C@H](O)[C@H]1O [crystal form J, Kudinoside A]
- decomposition temperature [2]: about 324 °C
- conditions under which the crystal form exists stably [3]: can exist stably as a dry powder at room temperature
- characteristic peaks on the X-ray powder diffraction pattern (crystal form change) [5]: not changed
- weight loss condition (TGA) [5]: not changed
- weight change when the relative humidity is in the range of 0%-80% [4]: about 4.7%
- hygroscopicity [4]: hygroscopic
- Increase in mass (relative humidity: 0%-80%) [4]: 4.7%
- Degree of hygroscopicity [4]: hygroscopic
- Degree of hygroscopicity ([4]; listed as J): Hygroscopic (The increase in mass is less than 15% but not less than 2%)
